Laboratory results reported in paper PMC3342997 (HIV Medicine, 2011).
Values after ≈ are worked out from the molar mass of the structure shown. Values joined by “and” are separate entries in the source; they are usually repeats but may differ in a detail not shown here. Equal entries are not always repeated. Where two headings read alike, the source gives them in different places.

Experiments:
[1] = in vivo; cited from earlier work
[2] = clinical; conditions: female, human, in vivo, 200 mg
[3] = female, human, in vivo
[4] = for Women with detectable emtricitabine concentrations at pre-dose sampling: limit of detection 0.0118 mg/L
[5] = clinical; conditions: female, human, 200 mg; for Vd/F / half-life: in vivo; for AUC: 200 mg once daily, steady state, AUC0-24, noncompartmental
[6] = cited from earlier work
[7] = system: HIV-1; conditions: combination antiretroviral regimen
[8] = system: wild-type HIV-1; conditions: mean in vitro, wild-type HIV-1 viral replication; ref not given; cited from earlier work
[9] = postpartum (n = 22), geometric least-squares mean (90% CI)
[10] = third trimester (n = 26), geometric least-squares mean (90% CI)

Cc1ccnc2c1NC(=O)c1cccnc1N2C1CC1 [nevirapine]
Reduction of exposure during pregnancy [1]: 10–20%

Nc1nc(=O)n([C@@H]2CS[C@H](CO)O2)cc1F [emtricitabine]
Kp [2]: 1.2 | Maternal plasma concentration at delivery [3]: 0.15 mg/L | Subjects with grade 3 adverse events of elevated bilirubin (human, in vivo): three subjects | Tolerability (human, in vivo): well tolerated | Congenital anomalies in infants (lachrymal duct stenosis, grade 3 vesicoureteral reflux, deemed not related to the antiretroviral regimen): two infants | Women with detectable emtricitabine concentrations at pre-dose sampling ([4]; antepartum): All 26 women | Subjects achieving target AUC ≥7.0 mg h/L ([4]; during pregnancy, 15 of 26 subjects, 80% CI 45–70%): 58% | C24 (24 hour post dose concentration) [4, 9]: 0.085 mg/L | Cmax [4, 9]: 1.4 (1.3–1.7) mg/L | C24 (24 hour post dose concentration) ([4]; postpartum (n = 22), geometric least-squares mean (90% CI), listed as Emtricitabine): 0.085 (0.07–0.1) mg/L | tmax ([4]; postpartum (n = 22), median (range)): 2.0 (min–max: 1–6) hours | Subjects achieving target AUC ≥7.0 mg h/L ([4]; postpartum, 21 of 22 subjects, 80% CI 89–100%): 95% | Women with detectable emtricitabine concentrations at pre-dose sampling ([4]; postpartum): 18 of 22 | Magnitude of the AUC decrease during pregnancy ([4]; pregnancy compared with postpartum): less than 20% | C24 (24 hour post dose concentration) [4, 10]: 0.058 mg/L | Vd/F [5, 9]: 301 L | Vd/F [5, 10]: 334 L | half-life ([5]; t1/2, postpartum (n = 22), geometric least-squares mean (90% CI)): 10.1 h | half-life ([5]; t1/2, third trimester (n = 26), geometric least-squares mean (90% CI)): 9.3 h | Cmax ([5]; plasma, oral): 1400 ng/mL | tmax ([5]; plasma, oral): 2 h | AUC ([5]; plasma, oral, postpartum (n = 22), geometric least-squares mean (90% CI)): 9700 ng·h/mL | AUC ([5]; plasma, oral, third trimester (n = 26), geometric least-squares mean (90% CI)): 8000 ng·h/mL | concentration at 24 h ([5]; plasma, oral, C24 (24 hour post dose concentration), postpartum (n = 22), geometric least-squares mean (90% CI)): 85 ng/mL | concentration at 24 h ([5]; plasma, oral, C24 (24 hour post dose concentration), third trimester (n = 26), geometric least-squares mean (90% CI)): 58 ng/mL | concentration at 24 h ([5]; plasma, oral, Lowest C24, postpartum): 70 ng/mL | AUC ([6]; in vivo, 200 mg): 10000 ng·h/mL | Cmax ([6]; in vivo): 1800 ± 700 ng/mL | Minimum adult concentration ([6]; in vivo): 0.077 mg/L | Protein binding ([6]; in vivo): low protein binding | CL/F ([6]; nonpregnant adults, 200 mg once daily): 18.1 L/h | Women with viral load <400 HIV-1 RNA copies/mL ([7]; postpartum): 15 of 19 and 15 | Women with viral load <400 HIV-1 RNA copies/mL ([7]; third trimester): 24 of 26 | IC50 (drug concentration that suppresses viral replication by half) [8]: 0.004 µg/mL (≈ 0.0162 µM) | IC90 [8]: 0.051 µg/mL (≈ 0.206 µM)
